# Reference: US20260102460A1, “NOVEL COMBINATIONS OF ANTIBIOTICS AND NON-ANTIBIOTIC DRUGS EFFECTIVE IN VIVO AGAINST GRAM-POSITIVE BACTERIA, IN PARTICULAR METHICILLIN-RESISTANT S. AUREUS (MRSA)” (EUROPEAN MOLECULAR BIOLOGY LABORATORY, priority 2022, published 2026)
# How the values were obtained:
# [1] = system: S. aureus DSM 20231; assay: Adjuvant (extended non-antibiotic) combination screen; type: cell-based, Staphylococcus aureus
# Protocol: MICs were tested in all strains for the main screen. Drugs were two-fold serially diluted in 11 concentrations, and 32 no-drug control wells were included in each plate. Experiments were conducted in 384-well plates (ref. 781271 by Greiner BioOne), with a total volume of 30 μl for S. aureus and B. subtilis and 55 μl for S. pneumoniae. Volumes were optimized for each strain to achieve good dynamic range for growth and minimize risk of cross-contamination between wells. Plates were inoculated with a starting optical density at 595 nm (OD595 nm) of 0.01 from an overnight culture. All liquid handling was performed using a Biomek FX liquid handler (Beckman Coulter). Plates were sealed with breathable membranes and incubated at 37° C. OD595 nm was measured every 30 minutes for 14 hours. The MIC was considered as the first concentration at which growth was inhibited. Experiments were conducted in biological duplicates. For the adjuvant screen, antibiotics were tested in S. aureus DSM 20231 at the same concentrations as for the main screen. Non-antibiotics concentrations were selected to fall within therapeutic ranges.
# 62 drugs, hereafter designated as recipients, were arrayed in 384-well plates (ref. 781271 by Greiner BioOne) in three two-fold serial dilutions and two technical replicates. Concentrations were selected according to MICs, with the highest concentration corresponding to the MIC, and the intermediate and lowest concentration corresponding to ½ and ¼ MIC, respectively. Plates were kept frozen and defrosted upon each experimental run, when the same 62 drugs and in the same three concentrations were added as donor drugs (one drug at one concentration for each recipient plate). A few drugs were screened only as donors: the combinations co-amoxiclav and cotrimoxazole in B. subtilis and S. aureus DSM 20231; co-amoxiclav, clavulanic acid, pseudomonic acid and cefuroxime in S. aureus Newman. All donor drugs were tested in two biological replicates. Control wells were included in each plate (six no-drug wells, three plain medium wells and three wells containing only the donor drug). After the addition of donor drugs, plates were inoculated with cells. Handling, inoculation, growth conditions, plate incubation and OD595 nm measurements were performed as for the MIC determination.
# For the adjuvant screen, 44 non-antibiotic drugs were tested against the same recipient drugs of the main screen for S. aureus DSM 20231.
# The inventors selected 44 drugs to include pharmaceuticals that can be co-administered with antibiotics in S. aureus infections or non-antibiotics with previously reported antibacterial activity against S. aureus. […] Interactions were scored and benchmarked as for the main screen (Methods).
# [2] = system: S. aureus Newman; assay: Cytochrome c binding assay (cell surface charge); type: cell-based, Staphylococcus aureus; conditions: ticagrelor 10 and 5 μg/ml for 20 minutes
# Protocol: The cytochrome c binding assay was conducted as previously described (Radlinski, L. C. et al. Chemical Induction of Aminoglycoside Uptake Overcomes Antibiotic Tolerance and Resistance in Staphylococcus aureus. Cell Chem Biol 26, 1355-1364.e4 (2019)). Briefly, overnight cultures of S. aureus Newman were diluted 1:1000 in 20 ml of TSB medium and grown in flasks at 37° C. with continuous shaking until they reached OD578 nm˜0.45. Samples were then incubated in the same conditions with or without 10 and 5 μg/ml ticagrelor for 20 minutes. Samples were centrifuged at 10000 g for 15 minutes, washed twice with 20 mM MOPS buffer (pH 7) and concentrated to reach a final A578 of 10 in a 96 well-plate (ref. 4483481, Applied Biosystems™) containing cytochrome c (0.25 mg/ml, ref. 101467, MP Bio) or MOPS buffer (FIG. 5g). The plate was incubated in the dark at room temperature for 10 minutes. The cell pellets were collected, and the amount of cytochrome c in the supernatant was determined spectrophotometrically at an OD410 nm. Two-fold dilutions of cytochrome c in the same plate, starting from 256 μg/ml, were used to obtain a standard curve onto which a linear model was fitted to calculate cytochrome c concentrations in the other wells. Results are expressed as unbound cytochrome c fraction in the supernatants. Experiments were conducted in four biological replicates.
# [3] = system: MRSA; conditions: ticagrelor 10 μg/mL combined with vancomycin 4 μg/mL; cited from earlier work
# [4] = system: S. aureus USA300; assay: Time-kill experiments; type: cell-based, Staphylococcus aureus; conditions: ticagrelor 5 μg/ml, gentamicin 1.5 μg/ml, plated every 30 minutes for 2 hours (FIG. 5d)
# Protocol: Overnight cultures of S. aureus USA300 were diluted 1:100 in 20 ml of TSB medium, incubated for 1 h in flasks at 37° C. with continuous shaking and diluted again 1:100 in 20 ml prewarmed TSB with ticagrelor (5 μg/ml), gentamicin (1.5 μg/ml), their combination or without drugs. 50 μl of serial 10-fold dilutions of cultures were plated on TSA plates every 30 minutes for 2 hours. Cell viability was determined by counting CFUs after plates were incubated overnight in four independent experiments.
smiles,measurement,setting,value
CCCSc1nc(N[C@@H]2C[C@H]2c2ccc(F)c(F)c2)c2nnn([C@@H]3C[C@H](OCCO)[C@@H](O)[C@H]3O)c2n1 [ticagrelor],number of synergies,"[1]; S. aureus, non-antibiotic drugs with antibiotics",13
same,number of interactions,"[1]; among the 44 non-antibiotics tested, against panel of 62 drugs, S. aureus DSM 20231",27
same,binding of positively-charged cytochrome C to intact S. aureus cells,[2],increased
same,initial MRSA inoculum killed,[3],approximately 50%
same,interaction with gentamicin at killing level (CFU over time),[4],evident
same,interaction with gentamicin at killing level (CFU over time),[4]; listed as Ticagrelor,synergizes
